Consider four compounds from paper PMC3022525, “Analysis of LhcSR3, a Protein Essential for Feedback De-Excitation in the Green Alga Chlamydomonas reinhardtii” (PLoS Biology, 2011).

For assay [1], the target named is T1, LhcSR3 (Chlamydomonas reinhardtii, UniProt P0DO19).
T1 construct: gene LHCSR3.1; precursor 259 residues
T1 sequence (P0DO19 46-259 limits assumed): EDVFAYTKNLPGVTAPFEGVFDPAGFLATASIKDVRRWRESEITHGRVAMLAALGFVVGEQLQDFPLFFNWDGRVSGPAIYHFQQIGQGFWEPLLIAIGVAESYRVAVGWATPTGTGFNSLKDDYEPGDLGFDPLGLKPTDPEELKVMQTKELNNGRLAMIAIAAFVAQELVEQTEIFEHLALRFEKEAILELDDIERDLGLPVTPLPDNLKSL
The experiment in a line: […]-DCCD labelling, SDS-PAGE autoradiography, densitometry. As to conditions: covalent; labelled compound; protonatable residues. The assay is classed as binding.

Assay [2] addresses T1, LhcSR3. Description: in vitro reconstitution, HPLC pigment analysis, Soret spectral deconvolution. The assay is classed as binding.
Where [3] appears, read: refolded with Chl a, Chl b, lutein and violaxanthin (LV complex), sites L1/L2 proposed.

Turning to `C(=NC1CCCCC1)=NC1CCCCC1` [DCCD], at LhcSR3 [1], the “14C-DCCD labelling, SDS-PAGE autoradiography, densitometry” value is “LhcSR3 revealed very efficient binding of DCCD, higher than plant CP29”.

Regarding `CC1=C[C@H](O)CC(C)(C)[C@H]1/C=C/C(C)=C/C=C/C(C)=C/C=C/C=C(C)/C=C/C=C(C)/C=C/C1=C(C)C[C@@H](O)CC1(C)C` [lutein], the “in vitro reconstitution, HPLC pigment analysis, Soret spectral deconvolution” value (shortened to “in vitro reconstitution”) at LhcSR3 [2] (setting [3]) was “lutein and violaxanthin bound to the apoprotein”.

Take `CC1=C(/C=C/C(C)=C/C=C/C(C)=C/C=C/C=C(C)/C=C/C=C(C)/C=C/C2=C(C)C[C@@H](O)CC2(C)C)C(C)(C)C[C@H](O)C1` [zeaxanthin]: the “in vitro reconstitution” value at LhcSR3 [2] (refolded with zeaxanthin present besides lutein and violaxanthin (LVZ complex), several sites) is “implying that Zea entered the three sites, although to different extents”.

Consider `CC(/C=C/C=C(C)/C=C/[C@@]12O[C@]1(C)C[C@@H](O)CC2(C)C)=C\C=C\C=C(C)\C=C\C=C(C)\C=C\[C@@]12O[C@]1(C)C[C@@H](O)CC2(C)C` [violaxanthin], for which the “in vitro reconstitution” value at LhcSR3 [2] (setting [3]) is “lutein and violaxanthin bound to the apoprotein”.
